# What was measured:
# Format in all cases: cell-based
# A control cell lines = experiment: MTT assay, A control cell lines (lung cancer cell)
# Text: Please refer to Table 1 and FIGS. 4A-4C. According to a MTT assay (Table 1), various cell viabilities of the A control cell lines can be obtained and illustrated in FIG. 4A while the compounds No. 2˜30 are used to treat A control cell lines, wherein A control cell lines are lung cancer cell.
# A3 cell lines = experiment: MTT assay, A3 cell lines (lung cancer stem cell)
# Text: Please to FIG. 4B, various cell viabilities of the A3 cell lines can be obtained through the MTT assay and illustrated in FIG. 4B while the compounds No. 1˜30 are used to treat A3 cell lines, wherein A3 cell lines are lung cancer stem cell.
# [1] = MTT assay, HEL299 fibroblast; conditions: human
# Text: (§1) Please refer to FIG. 4C, various cell viabilities of the HEL299 cell lines can be obtained through the MTT assay while the compounds No. 1˜30 are used to treat HEL299 cell lines, wherein HEL299 cell lines are fibroblast.
# HEL299 fibroblast = experiment: MTT assay, HEL299 fibroblast
# Text: as §1
structure (smiles),measurement,setting,value
"Cc1cc(C)c(CSc2ccc3c(=O)c4ccccc4sc3c2Cl)c(C)c1 [No. 28, 4-Chloro-3-(2,4,6-trimethylbenzylthio)-9H-thioxanthen-9-one]",cell viabilities of A control cell lines (MTT assay),A control cell lines,52.9%
same,inhibition effect on A control cell line (in words),A control cell lines; summary of MTT cell viabilities,inhibition effect
same,cell viabilities of A3 cell lines (MTT assay),A3 cell lines,98.3 ± 2.25%
same,viability,[1],91.2%
same,cytotoxicity effect on the normal fibroblast (in words),HEL299 fibroblast,without the cytotoxicity effect

# Source: patent US8410161B2, “Thioxanthone ring system derivatives” (National Defense Medical Center, priority 2010, dated 2013)
